The values below come from patent publication US7732200B2, “Materials and methods for nerve grafting, selection of nerve grafts, and in vitro nerve tissue culture” (University of Florida Research Foundation, Inc., priority 2001, dated 2010).

In assay [1] the test system is chick DRG neurons. As to the kind of experiment: Cryoculture assay using human nerve segments. The following applies: DRG neurons 24 h; P<0.001 vs vehicle. Format: cell-based. How it is done: Cryoculture bioassay. Cryoculture is a neurite outgrowth assay in which neurons are cultured directly on fresh/frozen nerve sections and was performed as described previously (Ferguson T A et al. [2000] Mol Cell Neurosci, 16:157-167). Briefly, chondroitinase- and vehicle-treated nerve segments were sectioned at 20 μm, mounted on sterile, aminopropyltriethoxysilane (APTS)-coated coverslips and stored at −20° C. until used. Where indicated, sections were treated with chondroitinase ABC (0.1 unit/ml) or vehicle (50 mM Tris-HCl, pH 8.0), containing 50 mM NaCl) for 2 h at 37° C. Purified dorsal root ganglionic (DRG) neurons from day 8 chick embryos were seeded directly on the nerve sections in a defined N2 medium (Bottenstein J E et al. [1980] Exp Cell Res 125:183-190) containing 10 ng/ml nerve growth factor. Cryoculture assays were terminated after 24 h of incubation by fixation with 100% methanol. Neuritic growth by DRG neurons was accessed by GAP-43 immunofluorescent labeling. Epifluorescent photomicrographs were acquired as described for tissue sections. Neurite lengths were measured directly using IMAGE-PRO PLUS software (MEDIA CYBERNETICS, Silver Springs, Md.). At least 250 neurons with neurites greater than one cell body (˜15 μm) were scored for each condition in each experiment. […]

Assay [2] concerns CSPG. In words: CSPG neoepitope (Ab1918) and laminin immunolabeling of acellular nerve segments treated en bloc. The settings on record: acellular rat sciatic nerve segments bathed en bloc 16 h, 2 units/ml. An excerpt: Preparation of acellular nerve grafts treated with chondroitinase: Adult (180-200 g) female SPRAGUE DAWLEY rats (HARLAN, Indianapolis, Ind.) were used as nerve donors and recipient hosts. Donor rats were anesthetized with halothane and decapitated. Sciatic nerves were exposed through a gluteal muscle-splitting incision and isolated free of underlying fascia. A 15-mm nerve segment was excised rostral to the bifurcation into common peroneal and tibial nerves. The segments were rinsed with cold sterile Ringer's solution, stabilized by pinning the ends to a thin plastic support, and transferred to a cryogenic vial. The vials were submerged in liquid nitrogen for 2 minutes and then transferred to a 37° C. water bath for 2 minutes. This freeze/thaw cycle was repeated, yielding acellular nerve grafts that were then stored in liquid nitrogen. On the day before grafting, the nerve grafts were warmed to room temperature and incubated in 100 μl phosphate buffered saline pH 7.4 (PBS) containing 2 units/ml chondroitinase ABC (SIGMA, St. Louis, Mo.) or in PBS (vehicle) only for 16 hours at 37° C. The grafts were rinsed twice with Ringer's and kept on ice prior to use. […]
Immunocytochemistry. Axonal regeneration was assessed by GAP-43 immunofluorescence and digital image analysis. […]

In assay [3] the test system is rat sciatic nerve. In words: Human-to-rat acellular nerve xenograft model (GAP-43 profiles). The following applies: acellular human nerve fascicle grafts in rat, 8 days, 2 rats. Format: in vivo. How it is done: In the following experiments, the hypothesis that chondroitinase treatment improves nerve regeneration through acellular human nerve grafts in a rat xenograft model was tested. Subunits (individual fascicles) taken from human nerves were treated en bloc with vehicle or chondroitinase ABC. Ten-mm interpositional nerve grafts were joined to the rat host sciatic nerve by epineurial neurorrhaphy reinforced with fibrin glue. Each of 2 host rats received bilateral grafts, one vehicle-treated and one chondroitinase-treated graft. Regeneration was initially examined after 8 days. Axonal growth was assessed at specified spatial intervals within the graft by scoring GAP-43-immunopositive profiles in transverse sections.
For orientation: Xenograft models place foreign cells or tissue in a host animal.

Assay [4] relates to sciatic nerve. In words: Axonal regeneration after sciatic nerve transection (neurotmesis) and neurorrhaphic repair. Format: in vivo, rat.

In the case of chondroitinase ABC, the “growth-promoting properties of human nerves (neurite length)” value in assay [1] is recorded as “increased”. Besides, the “CSPG degradation by Ab1918 neoepitope immunostaining” value in assay [2] is listed as “thoroughly degraded CSPG side-chains”. Further, the “average number of axons (GAP-43-immunopositive profiles) entering grafts vs control grafts” value in assay [3] is recorded as “more than three-fold greater”. Moreover, in assay [4] (1 U in 2 μl, 4 days after injury, 7 nerves per condition), the “score of axons immediately distal to the coaptation vs control” value is reported as “two-fold greater”. Moreover, the “animals in which the number of axons entering the distal nerve was greater than in the control nerve” value in assay [4] (4 days after injury) is 7/7. In addition, the “propensity of axons to regrow within basal laminae of the distal nerve” value in assay [4] (GAP-43 and laminin double-immunolabeling) is on record as “unaltered”. In addition, the “animals with increases greater than 3.5-fold” value in assay [4] (axons immediately distal to coaptation, 4 days) was 3/7.
